Values quoted from earlier work, collected in patent US6306435A, “Oral pharmaceutical preparation embedded in an oily matrix and methods of making the same” (Yung Shin Pharmaceutical Industrial Co. Ltd., priority 2000, dated 2001).
Read-outs that look alike come from different tables or passages of the source.

What was measured:
[1] = not given; remark: listed apart in the source

In the case of `COc1ccc2[nH]c([S+]([O-])Cc3ncc(C)c(OC)c3C)nc2c1` (centres unmarked) [Omeprazole], the “solubility in alkaline solutions” value (alkaline solutions, as negatively charged ion) is given as “very soluble”, the “pKa (pyridinium)” value (pyridinium) is given as ~ 4 and the solubility in water (water) is given as “very slightly soluble”. The “degradation before reaching the small intestine” value ([1]; conventional oral dosage form) was “more than half”, the “effect of moisture, organic solvents and acidic substances on stability” value ([1]; moisture, organic solvents and acidic substances) was “deleterious effect” and the half-life of degradation ([1]; pH 6.5) was 18 h. The half-life of degradation ([1]; pH 11) was “about 300 days” and the half-life of degradation ([1]; water solutions, pH-values below 4) was “less than 10 minutes”.
